Results from ChEMBL document CHEMBL1201862, “PubChem BioAssay data set” (2004).
Calls of active or inactive are those of the source.

What was measured:
[1] = target: Multidrug resistance protein CDR2 (Candida albicans (strain SC5314 / ATCC MYA-2876) (Yeast), UniProt P78595); test: inhibition of Nile Red efflux via Candida CDR2 – S. cerevisiae AD1-8u, singleplex, Cherry Pick1 hits, dose response (AID 588604); assay type: functional
[2] = target: T1, Leucine aminopeptidase (Plasmodium falciparum 3D7, UniProt Q8IL11); test: P. falciparum M17LAP inhibitors, primary screen, biochemical, fluorogenic H-Leu-NHMec substrate, 1536-well (AID 1619); assay type: functional
T1 sequence (Q8IL11 whole entry): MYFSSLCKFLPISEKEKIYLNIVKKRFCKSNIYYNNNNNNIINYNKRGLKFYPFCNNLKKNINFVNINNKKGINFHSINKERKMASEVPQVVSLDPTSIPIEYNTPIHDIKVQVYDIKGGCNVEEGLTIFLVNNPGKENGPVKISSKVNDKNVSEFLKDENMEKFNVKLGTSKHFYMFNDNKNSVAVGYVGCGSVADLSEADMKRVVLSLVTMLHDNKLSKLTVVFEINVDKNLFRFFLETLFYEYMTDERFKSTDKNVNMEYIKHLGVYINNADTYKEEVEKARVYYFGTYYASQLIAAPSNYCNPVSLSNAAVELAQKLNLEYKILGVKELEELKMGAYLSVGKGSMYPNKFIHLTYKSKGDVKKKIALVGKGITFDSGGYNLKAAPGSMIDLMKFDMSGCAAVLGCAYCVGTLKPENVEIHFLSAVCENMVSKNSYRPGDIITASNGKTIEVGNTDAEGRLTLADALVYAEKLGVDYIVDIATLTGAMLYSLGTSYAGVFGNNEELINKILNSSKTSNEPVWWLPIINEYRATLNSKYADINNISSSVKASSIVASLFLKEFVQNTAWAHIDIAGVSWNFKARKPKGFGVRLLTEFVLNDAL

[3] = target: T2, Aspartyl aminopeptidase (Plasmodium falciparum 3D7, UniProt Q8I2J3); test: Counterscreen for inhibitors of M1 and M17 aminopeptidases: QFRET-based biochemical high throughput dose response assay for inhibitors of the Plasmodium falciparum M18 Aspartyl Aminopeptidase (PFM18AAP). [Related PubChem assays: 1619 (Screening assay (M17LAP inhibitors).), 1445 (Screening assay (M1AAP inhibitors).)]
T2 sequence (Q8I2J3 whole entry): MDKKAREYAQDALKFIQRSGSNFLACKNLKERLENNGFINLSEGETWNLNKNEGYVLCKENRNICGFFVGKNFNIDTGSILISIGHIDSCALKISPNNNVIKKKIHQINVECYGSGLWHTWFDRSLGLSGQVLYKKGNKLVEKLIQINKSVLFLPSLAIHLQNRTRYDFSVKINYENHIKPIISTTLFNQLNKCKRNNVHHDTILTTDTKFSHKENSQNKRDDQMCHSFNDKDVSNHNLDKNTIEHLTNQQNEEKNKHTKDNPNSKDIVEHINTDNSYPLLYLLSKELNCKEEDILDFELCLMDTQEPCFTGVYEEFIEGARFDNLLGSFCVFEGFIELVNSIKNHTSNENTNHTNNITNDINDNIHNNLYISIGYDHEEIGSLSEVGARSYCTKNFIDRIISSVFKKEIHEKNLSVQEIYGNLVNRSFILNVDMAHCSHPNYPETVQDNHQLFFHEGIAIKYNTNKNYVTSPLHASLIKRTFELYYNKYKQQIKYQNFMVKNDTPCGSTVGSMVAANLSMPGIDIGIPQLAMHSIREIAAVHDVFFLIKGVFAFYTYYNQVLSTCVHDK

[4] = target: Procathepsin L (Homo sapiens, UniProt P07711); test: CTSL1 protease inhibition – biochemical, QFRET, 1536-well, counter-screen for M1/M17 aminopeptidase inhibitor project, dose response (AID 2214)
[5] = target: Glycogen synthase kinase-3 beta (Homo sapiens, UniProt P49841); assay type: functional;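 further: value comes from a broad kinome profiling panel, with GSK3B as the panel member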
[6] = target: Misshapen-like kinase 1 (Homo sapiens, UniProt Q8N4C8); assay type: functional;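 further: kinome panel screen with MINK as the panel member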
Chain of Misshapen-like kinase 1 (Q8N4C8 whole entry): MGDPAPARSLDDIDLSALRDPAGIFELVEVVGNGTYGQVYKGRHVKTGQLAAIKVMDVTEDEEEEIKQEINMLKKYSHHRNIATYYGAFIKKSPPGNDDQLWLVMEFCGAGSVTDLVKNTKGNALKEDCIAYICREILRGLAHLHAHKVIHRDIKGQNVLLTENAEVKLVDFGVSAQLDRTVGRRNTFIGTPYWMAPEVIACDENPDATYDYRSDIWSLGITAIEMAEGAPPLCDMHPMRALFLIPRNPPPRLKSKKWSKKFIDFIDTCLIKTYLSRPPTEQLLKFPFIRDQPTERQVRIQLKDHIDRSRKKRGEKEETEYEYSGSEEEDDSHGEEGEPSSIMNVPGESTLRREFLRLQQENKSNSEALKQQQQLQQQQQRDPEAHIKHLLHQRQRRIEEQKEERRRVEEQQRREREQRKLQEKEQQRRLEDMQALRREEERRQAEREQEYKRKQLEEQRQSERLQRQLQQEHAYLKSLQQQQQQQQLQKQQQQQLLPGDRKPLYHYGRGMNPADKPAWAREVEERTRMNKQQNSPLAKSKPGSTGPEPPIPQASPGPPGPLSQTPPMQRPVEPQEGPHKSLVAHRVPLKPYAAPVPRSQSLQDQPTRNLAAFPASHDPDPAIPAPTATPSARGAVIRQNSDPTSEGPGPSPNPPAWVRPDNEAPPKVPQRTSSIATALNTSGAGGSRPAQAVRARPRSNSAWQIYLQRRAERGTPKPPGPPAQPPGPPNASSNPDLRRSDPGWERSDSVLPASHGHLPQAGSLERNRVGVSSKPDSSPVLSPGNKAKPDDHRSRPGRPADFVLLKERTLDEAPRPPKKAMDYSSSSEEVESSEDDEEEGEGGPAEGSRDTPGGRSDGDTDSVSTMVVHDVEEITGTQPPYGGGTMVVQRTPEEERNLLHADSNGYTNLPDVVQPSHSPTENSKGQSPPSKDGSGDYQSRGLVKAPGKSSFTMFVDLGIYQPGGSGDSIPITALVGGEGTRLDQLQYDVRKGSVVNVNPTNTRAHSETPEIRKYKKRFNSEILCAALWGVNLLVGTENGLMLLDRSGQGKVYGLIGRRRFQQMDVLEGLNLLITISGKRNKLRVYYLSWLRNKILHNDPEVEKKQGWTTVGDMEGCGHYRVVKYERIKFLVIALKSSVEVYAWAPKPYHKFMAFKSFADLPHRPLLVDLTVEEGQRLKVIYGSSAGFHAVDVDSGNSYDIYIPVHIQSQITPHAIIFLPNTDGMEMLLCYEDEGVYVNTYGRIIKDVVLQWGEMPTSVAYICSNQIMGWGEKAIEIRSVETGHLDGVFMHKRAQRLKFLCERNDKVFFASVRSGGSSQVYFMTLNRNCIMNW

[7] = target: Calcium/calmodulin-dependent protein kinase type II subunit beta (Homo sapiens, UniProt Q13554); assay type: functional
[8] = target: MAP/microtubule affinity-regulating kinase 3 (Homo sapiens, UniProt P27448); assay type: functional;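 further: MARK3 affinity measured as one member of a kinome panel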
[9] = target: Serine/threonine-protein kinase PLK3 (Homo sapiens, UniProt Q9H4B4); assay type: functional
[10] = target: Tyrosine-protein kinase SYK (Homo sapiens, UniProt P43405); assay type: functional
[11] = target: Homeodomain-interacting protein kinase 2 (Homo sapiens, UniProt Q9H2X6); assay type: functional;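 further: measured within a kinome-wide kinase profiling panel, HIPK2 being one panel member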
[12] = target: Serine/threonine-protein kinase PLK1 (Homo sapiens, UniProt P53350); assay type: functional;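 further: PLK1 measured as one member of a kinome-wide profiling panel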
[13] = target: Cyclin-dependent kinase 1 (Homo sapiens, UniProt P06493); assay type: functional;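 further: Kinome-wide panel profiling, with the target listed as panel member CDC2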
[14] = target: Testis-specific serine/threonine-protein kinase 2 (Homo sapiens, UniProt Q96PF2); assay type: functional;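 further: part of the Navigating the Kinome panel, target entry STK22B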
[15] = target: Receptor tyrosine-protein kinase erbB-4 (Homo sapiens, UniProt Q15303); assay type: functional;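 further: ERBB4 member of a kinome-wide kinase profiling panel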
[16] = target: Mitogen-activated protein kinase 13 (Homo sapiens, UniProt O15264); assay type: functional
[17] = target: Dual specificity tyrosine-phosphorylation-regulated kinase 4 (Homo sapiens, UniProt Q9NR20); assay type: functional
[18] = target: MAP kinase-activated protein kinase 3 (Homo sapiens, UniProt Q16644); assay type: functional;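 further: value comes from a kinome-wide profiling panel in which MAPKAPK3 is one of the panel members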
[19] = target: Cyclin-dependent kinase 9 (Homo sapiens, UniProt P50750); assay type: functional;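 further: value from the CDK9 entry of a kinome-spanning kinase panel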
[20] = target: Wee1-like protein kinase (Homo sapiens, UniProt P30291); test: Navigating the Kinome. Panel member name: WEE1; assay type: functional
[21] = target: Dual specificity tyrosine-phosphorylation-regulated kinase 3 (Homo sapiens, UniProt O43781); assay type: functional;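 further: measured as one member of a broad kinase panel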
[22] = target: Mitogen-activated protein kinase kinase kinase kinase 5 (Homo sapiens, UniProt Q9Y4K4); assay type: functional;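 further: measured as one member of a kinome-spanning kinase panel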
[23] = target: 5'-AMP-activated protein kinase catalytic subunit alpha-1 (Homo sapiens, UniProt Q13131); assay type: functional
[24] = target: RAC-alpha serine/threonine-protein kinase (Homo sapiens, UniProt P31749); assay type: functional;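 further: AKT1 affinity measured as one member of a kinome-wide kinase profiling panel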
[25] = target: Cell division cycle 7-related protein kinase (Homo sapiens, UniProt O00311); assay type: functional;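 further: value obtained from a kinome-wide kinase panel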
[26] = target: Tyrosine-protein kinase Blk (Homo sapiens, UniProt P51451); assay type: functional;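 further: obtained as one member of a kinome-wide kinase assay panel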
[27] = target: Serine/threonine-protein kinase pim-1 (Homo sapiens, UniProt P11309); assay type: functional
Chain of Serine/threonine-protein kinase pim-1 (P11309 whole entry): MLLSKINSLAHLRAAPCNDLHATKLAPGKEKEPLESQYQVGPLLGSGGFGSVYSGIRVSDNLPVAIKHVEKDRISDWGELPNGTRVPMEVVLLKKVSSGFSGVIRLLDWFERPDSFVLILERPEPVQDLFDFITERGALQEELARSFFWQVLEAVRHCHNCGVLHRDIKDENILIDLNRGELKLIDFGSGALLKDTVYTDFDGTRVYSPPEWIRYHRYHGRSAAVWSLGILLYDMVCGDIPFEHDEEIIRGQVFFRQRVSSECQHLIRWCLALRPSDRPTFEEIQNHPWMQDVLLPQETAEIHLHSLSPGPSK

[28] = target: Cyclin-dependent kinase 2 (Homo sapiens, UniProt P24941); assay type: functional;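 further: CDK2 measured as one member of a broad kinome profiling panel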
[29] = target: Glycogen synthase kinase-3 alpha (Homo sapiens, UniProt P49840); assay type: functional;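 further: GSK3A result taken from a broad kinome-wide kinase panel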
[30] = target: Tyrosine-protein kinase Lyn (Homo sapiens, UniProt P07948); assay type: functional;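 further: lyn as one member of a kinase panel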
[31] = target: RAC-gamma serine/threonine-protein kinase (Homo sapiens, UniProt Q9Y243); assay type: functional
[32] = target: Calcium/calmodulin-dependent protein kinase type II subunit delta (Homo sapiens, UniProt Q13557); assay type: functional
[33] = target: Lymphokine-activated killer T-cell-originated protein kinase (Homo sapiens, UniProt Q96KB5); assay type: functional;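 further: value comes from a kinase panel screen in which TOPK was one of the panel members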
[34] = target: cGMP-dependent protein kinase 1 (Homo sapiens, UniProt Q13976); assay type: functional;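 further: value from a kinome panel screen with PRKG1 as the panel member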
[35] = target: Protein kinase C gamma type (Homo sapiens, UniProt P05129); assay type: functional
[36] = target: Cyclin-dependent kinase 5 (Homo sapiens, UniProt Q00535); assay type: functional;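 further: CDK5 measured as one member of a kinase profiling panel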
[37] = target: Serine/threonine-protein kinase pim-2 (Homo sapiens, UniProt Q9P1W9); assay type: functional;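 further: value comes from a broad kinase panel profiling study in which PIM2 was one of the panel members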
[38] = target: Protein kinase C iota type (Homo sapiens, UniProt P41743); assay type: functional;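 further: measured within a kinome-wide kinase panel, PRKCI as panel member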
[39] = target: Serine/threonine-protein kinase D3 (Homo sapiens, UniProt O94806); assay type: functional;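 further: determined within a kinase panel screen, with PRKCN as the panel member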
[40] = target: Casein kinase II subunit alpha (Homo sapiens, UniProt P68400); assay type: functional
[41] = target: Mitogen-activated protein kinase 14 (Homo sapiens, UniProt Q16539); assay type: functional;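 further: part of a kinome-wide panel, MAPK14 entry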
[42] = target: Casein kinase I isoform delta (Homo sapiens, UniProt P48730); assay type: functional;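 further: measured as one member (CSNK1D) of a kinome panel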
[43] = target: Macrophage-stimulating protein receptor (Homo sapiens, UniProt Q04912); test: Navigating the Kinome. Panel member name: MST1R; assay type: functional
[44] = target: Mitogen-activated protein kinase 9 (Homo sapiens, UniProt P45984); assay type: functional;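 further: value from a kinome panel profiling assay, MAPK9 panel entry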
[45] = target: Mitogen-activated protein kinase kinase kinase 20 (Homo sapiens, UniProt Q9NYL2); assay type: functional
[46] = target: Vascular endothelial growth factor receptor 3 (Homo sapiens, UniProt P35916); assay type: functional;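 further: value from a kinome-wide profiling panel, with FLT4 as the panel member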
[47] = target: Cyclin-dependent kinase 7 (Homo sapiens, UniProt P50613); assay type: functional;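 further: value comes from a kinome-wide kinase profiling panel in which CDK7 is one member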
[48] = target: Casein kinase I isoform gamma-1 (Homo sapiens, UniProt Q9HCP0); assay type: functional;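 further: measured as the CSNK1G1 member of a kinome profiling panel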
Chain of Casein kinase I isoform gamma-1 (Q9HCP0 whole entry, canonical isoform): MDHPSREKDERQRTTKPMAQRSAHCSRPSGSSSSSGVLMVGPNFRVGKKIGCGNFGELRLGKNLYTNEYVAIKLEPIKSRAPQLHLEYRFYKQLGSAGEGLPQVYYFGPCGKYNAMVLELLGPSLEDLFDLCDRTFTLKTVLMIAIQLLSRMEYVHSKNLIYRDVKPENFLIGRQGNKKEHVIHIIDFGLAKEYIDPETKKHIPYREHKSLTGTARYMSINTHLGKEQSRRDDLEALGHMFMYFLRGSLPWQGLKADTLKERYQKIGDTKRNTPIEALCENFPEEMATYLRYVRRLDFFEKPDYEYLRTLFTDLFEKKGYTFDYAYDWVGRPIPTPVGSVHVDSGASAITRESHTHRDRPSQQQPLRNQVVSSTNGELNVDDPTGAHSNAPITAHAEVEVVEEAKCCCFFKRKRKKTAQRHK

[49] = target: Cyclin-dependent kinase 8 (Homo sapiens, UniProt P49336); test: Navigating the Kinome. Panel member name: CDK8; assay type: functional
Chain of Cyclin-dependent kinase 8 (P49336 whole entry): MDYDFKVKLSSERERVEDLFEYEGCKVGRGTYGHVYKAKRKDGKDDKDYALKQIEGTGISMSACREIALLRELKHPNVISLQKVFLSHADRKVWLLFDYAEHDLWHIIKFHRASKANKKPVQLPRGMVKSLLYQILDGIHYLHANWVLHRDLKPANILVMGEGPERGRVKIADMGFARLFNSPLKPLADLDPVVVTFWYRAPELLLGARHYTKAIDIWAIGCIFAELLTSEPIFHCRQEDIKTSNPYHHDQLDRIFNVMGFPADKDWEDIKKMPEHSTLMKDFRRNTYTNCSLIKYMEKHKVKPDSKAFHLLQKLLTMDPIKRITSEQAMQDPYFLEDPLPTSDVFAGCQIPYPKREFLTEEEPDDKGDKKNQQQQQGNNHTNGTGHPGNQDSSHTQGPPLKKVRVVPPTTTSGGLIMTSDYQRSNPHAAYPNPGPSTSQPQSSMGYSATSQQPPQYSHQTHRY

[50] = target: cAMP-dependent protein kinase catalytic subunit PRKX (Homo sapiens, UniProt P51817); assay type: functional
[51] = target: Serine/threonine-protein kinase MRCK alpha (Homo sapiens, UniProt Q5VT25); assay type: functional
Chain of Serine/threonine-protein kinase MRCK alpha (Q5VT25 whole entry): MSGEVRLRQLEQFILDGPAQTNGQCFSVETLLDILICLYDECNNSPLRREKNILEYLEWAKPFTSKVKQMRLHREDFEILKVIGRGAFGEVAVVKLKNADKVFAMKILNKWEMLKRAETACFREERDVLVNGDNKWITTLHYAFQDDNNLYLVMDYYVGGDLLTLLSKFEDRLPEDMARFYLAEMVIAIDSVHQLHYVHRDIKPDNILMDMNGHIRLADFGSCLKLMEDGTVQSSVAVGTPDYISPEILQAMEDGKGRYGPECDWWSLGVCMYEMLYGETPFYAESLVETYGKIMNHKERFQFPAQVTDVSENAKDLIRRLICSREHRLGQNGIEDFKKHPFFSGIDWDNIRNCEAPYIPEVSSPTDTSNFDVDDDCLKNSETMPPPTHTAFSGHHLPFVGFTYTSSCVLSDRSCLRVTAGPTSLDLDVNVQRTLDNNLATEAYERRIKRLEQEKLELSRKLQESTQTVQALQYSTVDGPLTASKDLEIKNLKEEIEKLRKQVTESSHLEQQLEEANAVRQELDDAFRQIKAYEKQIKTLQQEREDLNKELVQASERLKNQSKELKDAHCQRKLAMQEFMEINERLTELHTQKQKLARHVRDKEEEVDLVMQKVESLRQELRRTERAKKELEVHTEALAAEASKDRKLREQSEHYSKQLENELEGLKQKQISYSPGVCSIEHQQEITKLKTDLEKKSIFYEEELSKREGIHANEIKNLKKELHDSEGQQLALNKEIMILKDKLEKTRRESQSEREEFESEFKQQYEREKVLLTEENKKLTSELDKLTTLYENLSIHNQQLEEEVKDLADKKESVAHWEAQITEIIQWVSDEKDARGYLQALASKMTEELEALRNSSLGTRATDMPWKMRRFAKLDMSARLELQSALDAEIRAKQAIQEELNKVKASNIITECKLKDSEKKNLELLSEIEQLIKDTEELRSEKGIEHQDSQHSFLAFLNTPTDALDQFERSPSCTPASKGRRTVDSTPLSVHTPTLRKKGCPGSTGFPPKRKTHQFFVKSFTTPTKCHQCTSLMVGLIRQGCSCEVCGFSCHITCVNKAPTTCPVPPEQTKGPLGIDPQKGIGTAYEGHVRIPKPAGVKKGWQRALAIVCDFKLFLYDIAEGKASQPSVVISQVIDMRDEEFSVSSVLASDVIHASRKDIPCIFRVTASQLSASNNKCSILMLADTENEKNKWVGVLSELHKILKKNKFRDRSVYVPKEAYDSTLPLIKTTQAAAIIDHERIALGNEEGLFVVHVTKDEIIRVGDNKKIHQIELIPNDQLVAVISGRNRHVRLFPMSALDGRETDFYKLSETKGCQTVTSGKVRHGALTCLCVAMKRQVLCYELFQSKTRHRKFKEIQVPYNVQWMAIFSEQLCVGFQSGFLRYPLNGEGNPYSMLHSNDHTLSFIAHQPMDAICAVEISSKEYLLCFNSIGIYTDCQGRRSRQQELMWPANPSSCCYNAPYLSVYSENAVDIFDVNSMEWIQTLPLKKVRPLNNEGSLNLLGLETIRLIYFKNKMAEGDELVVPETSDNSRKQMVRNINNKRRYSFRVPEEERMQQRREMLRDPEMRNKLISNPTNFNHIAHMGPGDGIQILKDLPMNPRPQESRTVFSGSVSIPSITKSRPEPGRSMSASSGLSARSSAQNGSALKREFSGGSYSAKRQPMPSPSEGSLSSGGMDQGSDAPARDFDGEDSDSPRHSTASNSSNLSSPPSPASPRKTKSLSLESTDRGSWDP

[52] = target: Tyrosine-protein kinase Fyn (Homo sapiens, UniProt P06241); assay type: functional
Chain of Tyrosine-protein kinase Fyn (P06241 whole entry): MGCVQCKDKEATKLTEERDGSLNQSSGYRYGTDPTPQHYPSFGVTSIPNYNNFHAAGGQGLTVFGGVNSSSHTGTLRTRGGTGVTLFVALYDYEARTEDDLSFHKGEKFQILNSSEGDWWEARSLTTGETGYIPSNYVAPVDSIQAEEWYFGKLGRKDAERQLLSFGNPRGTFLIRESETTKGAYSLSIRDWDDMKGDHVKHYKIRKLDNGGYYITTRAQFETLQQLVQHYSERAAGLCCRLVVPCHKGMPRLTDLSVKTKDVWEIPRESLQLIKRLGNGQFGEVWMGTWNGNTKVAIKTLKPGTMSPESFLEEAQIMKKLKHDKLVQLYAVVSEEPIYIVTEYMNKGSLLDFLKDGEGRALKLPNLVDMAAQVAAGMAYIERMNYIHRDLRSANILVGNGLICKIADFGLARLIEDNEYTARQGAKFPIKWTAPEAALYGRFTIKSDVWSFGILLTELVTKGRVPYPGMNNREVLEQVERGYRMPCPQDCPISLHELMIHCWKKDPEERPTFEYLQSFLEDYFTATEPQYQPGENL

[53] = target: Tyrosine-protein kinase Lck (Homo sapiens, UniProt P06239); assay type: functional;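 further: lck was assayed as one member of a kinase panel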
[54] = target: LIM domain kinase 1 (Homo sapiens, UniProt P53667); test: Navigating the Kinome. Panel member name: LIMK1; assay type: functional
[55] = target: Tyrosine-protein kinase BTK (Homo sapiens, UniProt Q06187); assay type: functional
[56] = target: ALK tyrosine kinase receptor (Homo sapiens, UniProt Q9UM73); assay type: functional;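 further: ALK tested as one member of a kinase panel screen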
[57] = target: Focal adhesion kinase 1 (Homo sapiens, UniProt Q05397); assay type: functional;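 further: measured as one member of a kinome panel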
[58] = target: Serine/threonine-protein kinase TAO1 (Homo sapiens, UniProt Q7L7X3); assay type: functional

## Cc1cc(C(=O)COC(=O)c2ccc[nH]c2=O)c(C)n1-c1ccc(F)cc1
[1]
  EC50: 6.22 µM (active)
[2]
  IC50: 1.98 µM (active)
[3]
  IC50: > 73.5 µM (not active)
[4]
  IC50: > 59.6 µM (not active)

## Cc1ccc(Nc2c(C(=O)O)n(CCCOc3cccc4ccccc34)c3cccc(-c4ccccc4C)c23)cc1
[5]
  Ki: 3.98 µM (active)
[6]
  Ki: 6.31 µM (active)
[7]
  Ki: 6.31 µM (active)
[8]
  Ki: 3.98 µM (active)
[9]
  Ki: 3.16 µM (active)
[10]
  Ki: 1.26 µM (active)
[11]
  Ki: 3.16 µM (active)
[12]
  Ki: 2.51 µM (active)

## COc1cc(N2CCC(N3CCN(C)CC3)CC2)ccc1Nc1ncc(Cl)c(Nc2ccccc2S(=O)(=O)C(C)C)n1 [TAE-684]
[13]
  Ki: 0.316 µM (active)
[14]
  Ki: 0.01 µM (active)
[15]
  Ki: 0.02 µM (active)
[16]
  Ki: > 7.94 µM (inactive)
[17]
  Ki: > 7.94 µM (inactive)
[18]
  Ki: > 10 µM (inactive)
[19]
  Ki: > 1.58 µM (inactive)
[20]
  Ki: > 0.251 µM (inactive)
[21]
  Ki: > 6.31 µM (inactive)
[22]
  Ki: 0.0794 µM (active)
[23]
  Ki: 0.01 µM (active)
[24]
  Ki: > 7.94 µM (inactive)
[25]
  Ki: > 1 µM (inactive)
[26]
  Ki: 0.0631 µM (active)
[27]
  Ki: > 7.94 µM (inactive)
[28]
  pKi: 6.9
[29]
  Ki: > 3.16 µM (inactive)
[6]
  Ki: 1 µM (active)
[30]
  Ki: 0.0794 µM (active)
[31]
  Ki: > 10 µM (inactive)
[32]
  Ki: 0.00398 µM (active)
[33]
  Ki: > 10 µM (inactive)
[34]
  Ki: 1.58 µM (active)
[35]
  Ki: > 1 µM (inactive)
[36]
  Ki: 0.0794 µM (active)
[37]
  Ki: > 1.58 µM (inactive)
[38]
  Ki: > 5.01 µM (inactive)
[39]
  Ki: 0.0316 µM (active)
[40]
  Ki: > 2.51 µM (inactive)
[41]
  Ki: > 3.98 µM (inactive)
[42]
  Ki: > 7.94 µM (inactive)
[43]
  Ki: 0.126 µM (active)
[44]
  Ki: 0.398 µM (active)
[45]
  Ki: > 7.94 µM (inactive)
[46]
  Ki: 0.00794 µM (active)
[47]
  Ki: 0.0794 µM (active)
[48]
  Ki: > 6.31 µM (inactive)
[49]
  Ki: > 3.98 µM (inactive)
[50]
  Ki: > 1 µM (inactive)
[51]
  Ki: 3.98 µM (active)

## CC(C)(C)c1cc(NC(=O)C(=O)c2cccc3ccccc23)n(-c2ccc(OCC(=O)NCCO)cc2)n1
[52]
  Ki: > 6.31 µM (inactive)
[53]
  Ki: > 6.31 µM (inactive)
[27]
  Ki: > 6.31 µM (inactive)
[54]
  Ki: 0.501 µM (active)
[55]
  Ki: > 6.31 µM (inactive)
[56]
  Ki: > 6.31 µM (inactive)
[57]
  Ki: > 6.31 µM (inactive)
[58]
  Ki: > 6.31 µM (inactive)
[49]
  Ki: 1.58 µM (active)
